Test results published in patent publication US7067508B2, “Diaminedithiol derivatives and radiorhenium or radiotechnetium complex thereof; a liver cancer-treating composition comprising the radiorhenium complex and lipiodol; and a kit for preparation of the liver cancer-treating composition” (Seoul National University Industry Foundation, priority 2001, dated 2006).

Experiment: Biodistribution of 188Re-labelled compounds in lipiodol solution in mice after tail vein injection
Assay type: in vivo
Conditions: mice (ICR)
Method: To the ^188Re-labelled reaction mixture prepared in the foregoing Examples 4 to 6, lipiodol (5 ml) was added, mixed well and the solution was centrifuged at 3000 rpm for 10 min. The supernatant was removed and 2 ml saline was added. After mixing well, the resulting solution was centrifuged again at 3000 rpm for 10 min and the supernatant was removed to recover a lower phase of lipiodol.
Mice (ICR) were administered with an injection of ^188Re-labelled compound in lipiodol solution which was prepared in the Example 7 via the tail vein. Radioactivity distributed in tissues and weight of each tissue were measured to calculate the percentage of radioactivity per gram of unit tissue relative to total radioactivity administered.
As radiation accumulation mechanism in the lung and the liver cancer are similar, it is convenient to detect the level of radiation accumulating in the lung of a mouse suffering from liver cancer. […] Therefore, it can be inferred that a radiorhenium complex of a diaminedithiol derivative having a long side chain is effective for treating liver cancer.

CCCCCCCCCCCCCCCC[N+]12CC[N]3CC(C)(C)[S][188Re-]31(=[O])[S]C(C)(C)C2 (stereo not shown) [^188Re-HTDD]
Biodistribution, radioactivity in Blood (10 min post-injection): 8.1 ± 1.5 percentage of radioactivity per gram
Biodistribution, radioactivity in Fat (10 min post-injection): 3.9 ± 1.5 percentage of radioactivity per gram
Biodistribution, radioactivity in Heart (10 min post-injection): 9.4 ± 3.0 percentage of radioactivity per gram
Biodistribution, radioactivity in Kidney (10 min post-injection): 7.0 ± 1.8 percentage of radioactivity per gram
Biodistribution, radioactivity in Liver (10 min post-injection): 11.6 ± 1.7 percentage of radioactivity per gram
Biodistribution, radioactivity in Lung (10 min post-injection): 211.3 ± 30.0 percentage of radioactivity per gram
Biodistribution, radioactivity in Muscle (10 min post-injection): 1.9 ± 0.3 percentage of radioactivity per gram
Biodistribution, radioactivity in Small intestine (10 min post-injection): 3.4 ± 0.5 percentage of radioactivity per gram
Biodistribution, radioactivity in Spleen (10 min post-injection): 3.6 ± 0.8 percentage of radioactivity per gram
Biodistribution, radioactivity in Stomach (10 min post-injection): 7.4 ± 1.6 percentage of radioactivity per gram
Biodistribution, radioactivity in Blood (30 min post-injection): 9.1 ± 5.3 percentage of radioactivity per gram
Biodistribution, radioactivity in Fat (30 min post-injection): 2.8 ± 0.5 percentage of radioactivity per gram
Biodistribution, radioactivity in Heart (30 min post-injection): 6.0 ± 1.1 percentage of radioactivity per gram
Biodistribution, radioactivity in Kidney (30 min post-injection): 6.5 ± 0.9 percentage of radioactivity per gram
Biodistribution, radioactivity in Liver (30 min post-injection): 15.9 ± 1.6 percentage of radioactivity per gram
Biodistribution, radioactivity in Lung (30 min post-injection): 185.6 ± 20.9 percentage of radioactivity per gram
Biodistribution, radioactivity in Muscle (30 min post-injection): 1.5 ± 0.2 percentage of radioactivity per gram
Biodistribution, radioactivity in Small intestine (30 min post-injection): 6.5 ± 0.6 percentage of radioactivity per gram
Biodistribution, radioactivity in Spleen (30 min post-injection): 3.1 ± 0.2 percentage of radioactivity per gram
Biodistribution, radioactivity in Stomach (30 min post-injection): 15.1 ± 2.9 percentage of radioactivity per gram
Biodistribution, radioactivity in Blood (1 hr post-injection): 4.2 ± 0.5 percentage of radioactivity per gram
Biodistribution, radioactivity in Fat (1 hr post-injection): 2.7 ± 0.6 percentage of radioactivity per gram
Biodistribution, radioactivity in Heart (1 hr post-injection): 4.7 ± 0.9 percentage of radioactivity per gram
Biodistribution, radioactivity in Kidney (1 hr post-injection): 6.1 ± 1.4 percentage of radioactivity per gram
Biodistribution, radioactivity in Liver (1 hr post-injection): 14.4 ± 2.5 percentage of radioactivity per gram
Biodistribution, radioactivity in Lung (1 hr post-injection): 177.8 ± 18.4 percentage of radioactivity per gram
Biodistribution, radioactivity in Muscle (1 hr post-injection): 1.1 ± 0.2 percentage of radioactivity per gram
Biodistribution, radioactivity in Small intestine (1 hr post-injection): 9.3 ± 1.0 percentage of radioactivity per gram
Biodistribution, radioactivity in Spleen (1 hr post-injection): 3.0 ± 0.8 percentage of radioactivity per gram
Biodistribution, radioactivity in Stomach (1 hr post-injection): 21.0 ± 1.7 percentage of radioactivity per gram
Biodistribution, radioactivity in Blood (3 hr post-injection): 2.8 ± 0.5 percentage of radioactivity per gram
Biodistribution, radioactivity in Fat (3 hr post-injection): 2.0 ± 0.6 percentage of radioactivity per gram
Biodistribution, radioactivity in Heart (3 hr post-injection): 4.5 ± 0.8 percentage of radioactivity per gram
Biodistribution, radioactivity in Kidney (3 hr post-injection): 6.2 ± 1.2 percentage of radioactivity per gram
Biodistribution, radioactivity in Liver (3 hr post-injection): 9.0 ± 1.8 percentage of radioactivity per gram
Biodistribution, radioactivity in Lung (3 hr post-injection): 157.3 ± 28.6 percentage of radioactivity per gram
Biodistribution, radioactivity in Muscle (3 hr post-injection): 0.8 ± 0.2 percentage of radioactivity per gram
Biodistribution, radioactivity in Small intestine (3 hr post-injection): 12.2 ± 1.3 percentage of radioactivity per gram
Biodistribution, radioactivity in Spleen (3 hr post-injection): 2.7 ± 0.1 percentage of radioactivity per gram
Biodistribution, radioactivity in Stomach (3 hr post-injection): 19.3 ± 4.0 percentage of radioactivity per gram
Biodistribution, radioactivity in Blood (24 hr post-injection): 0.6 ± 0.1 percentage of radioactivity per gram
Biodistribution, radioactivity in Fat (24 hr post-injection): 0.8 ± 0.3 percentage of radioactivity per gram
Biodistribution, radioactivity in Heart (24 hr post-injection): 2.2 ± 0.8 percentage of radioactivity per gram
Biodistribution, radioactivity in Kidney (24 hr post-injection): 3.3 ± 0.7 percentage of radioactivity per gram
Biodistribution, radioactivity in Liver (24 hr post-injection): 5.6 ± 1.0 percentage of radioactivity per gram
Biodistribution, radioactivity in Lung (24 hr post-injection): 118.0 ± 19.5 percentage of radioactivity per gram
Biodistribution, radioactivity in Muscle (24 hr post-injection): 0.4 ± 0.1 percentage of radioactivity per gram
Biodistribution, radioactivity in Small intestine (24 hr post-injection): 6.2 ± 3.4 percentage of radioactivity per gram
Biodistribution, radioactivity in Spleen (24 hr post-injection): 9.3 ± 5.2 percentage of radioactivity per gram
Biodistribution, radioactivity in Stomach (24 hr post-injection): 5.5 ± 1.7 percentage of radioactivity per gram

CCCCCCCC[N+]12CC[N]3CC(C)(C)[S][188Re-]31(=[O])[S]C(C)(C)C2 (stereo not shown) [^188Re-OTDD]
Biodistribution, radioactivity in Blood (10 min post-injection): 5.2 ± 1.8 percentage of radioactivity per gram
Biodistribution, radioactivity in Fat (10 min post-injection): 3.6 ± 0.7 percentage of radioactivity per gram
Biodistribution, radioactivity in Heart (10 min post-injection): 6.3 ± 1.7 percentage of radioactivity per gram
Biodistribution, radioactivity in Kidney (10 min post-injection): 8.0 ± 1.2 percentage of radioactivity per gram
Biodistribution, radioactivity in Liver (10 min post-injection): 15.1 ± 2.4 percentage of radioactivity per gram
Biodistribution, radioactivity in Lung (10 min post-injection): 138.4 ± 19.8 percentage of radioactivity per gram
Biodistribution, radioactivity in Muscle (10 min post-injection): 1.5 ± 0.2 percentage of radioactivity per gram
Biodistribution, radioactivity in Small intestine (10 min post-injection): 3.6 ± 0.3 percentage of radioactivity per gram
Biodistribution, radioactivity in Spleen (10 min post-injection): 2.6 ± 0.3 percentage of radioactivity per gram
Biodistribution, radioactivity in Stomach (10 min post-injection): 3.5 ± 1.3 percentage of radioactivity per gram
Biodistribution, radioactivity in Blood (30 min post-injection): 3.8 ± 0.4 percentage of radioactivity per gram
Biodistribution, radioactivity in Fat (30 min post-injection): 2.2 ± 0.2 percentage of radioactivity per gram
Biodistribution, radioactivity in Heart (30 min post-injection): 4.4 ± 0.3 percentage of radioactivity per gram
Biodistribution, radioactivity in Kidney (30 min post-injection): 6.6 ± 0.3 percentage of radioactivity per gram
Biodistribution, radioactivity in Liver (30 min post-injection): 21.6 ± 4.9 percentage of radioactivity per gram
Biodistribution, radioactivity in Lung (30 min post-injection): 97.4 ± 20.7 percentage of radioactivity per gram
Biodistribution, radioactivity in Muscle (30 min post-injection): 1.2 ± 0.2 percentage of radioactivity per gram
Biodistribution, radioactivity in Small intestine (30 min post-injection): 8.0 ± 2.0 percentage of radioactivity per gram
Biodistribution, radioactivity in Spleen (30 min post-injection): 2.3 ± 0.1 percentage of radioactivity per gram
Biodistribution, radioactivity in Stomach (30 min post-injection): 12.9 ± 6.6 percentage of radioactivity per gram
Biodistribution, radioactivity in Blood (1 hr post-injection): 3.1 ± 0.5 percentage of radioactivity per gram
Biodistribution, radioactivity in Fat (1 hr post-injection): 1.6 ± 0.4 percentage of radioactivity per gram
Biodistribution, radioactivity in Heart (1 hr post-injection): 2.7 ± 1.0 percentage of radioactivity per gram
Biodistribution, radioactivity in Kidney (1 hr post-injection): 5.6 ± 0.9 percentage of radioactivity per gram
Biodistribution, radioactivity in Liver (1 hr post-injection): 20.1 ± 3.3 percentage of radioactivity per gram
Biodistribution, radioactivity in Lung (1 hr post-injection): 87.0 ± 13.2 percentage of radioactivity per gram
Biodistribution, radioactivity in Muscle (1 hr post-injection): 0.9 ± 0.2 percentage of radioactivity per gram
Biodistribution, radioactivity in Small intestine (1 hr post-injection): 13.0 ± 3.7 percentage of radioactivity per gram
Biodistribution, radioactivity in Spleen (1 hr post-injection): 1.9 ± 0.6 percentage of radioactivity per gram
Biodistribution, radioactivity in Stomach (1 hr post-injection): 11.1 ± 3.1 percentage of radioactivity per gram
Biodistribution, radioactivity in Blood (3 hr post-injection): 2.8 ± 0.3 percentage of radioactivity per gram
Biodistribution, radioactivity in Fat (3 hr post-injection): 1.3 ± 0.4 percentage of radioactivity per gram
Biodistribution, radioactivity in Heart (3 hr post-injection): 1.9 ± 0.4 percentage of radioactivity per gram
Biodistribution, radioactivity in Kidney (3 hr post-injection): 4.0 ± 0.5 percentage of radioactivity per gram
Biodistribution, radioactivity in Liver (3 hr post-injection): 19.7 ± 6.7 percentage of radioactivity per gram
Biodistribution, radioactivity in Lung (3 hr post-injection): 61.6 ± 10.0 percentage of radioactivity per gram
Biodistribution, radioactivity in Muscle (3 hr post-injection): 0.5 ± 0.1 percentage of radioactivity per gram
Biodistribution, radioactivity in Small intestine (3 hr post-injection): 23.4 ± 0.3 percentage of radioactivity per gram
Biodistribution, radioactivity in Spleen (3 hr post-injection): 1.8 ± 0.3 percentage of radioactivity per gram
Biodistribution, radioactivity in Stomach (3 hr post-injection): 15.5 ± 6.6 percentage of radioactivity per gram
Biodistribution, radioactivity in Blood (24 hr post-injection): 0.6 ± 0.0 percentage of radioactivity per gram
Biodistribution, radioactivity in Fat (24 hr post-injection): 0.4 ± 0.1 percentage of radioactivity per gram
Biodistribution, radioactivity in Heart (24 hr post-injection): 0.7 ± 0.1 percentage of radioactivity per gram
Biodistribution, radioactivity in Kidney (24 hr post-injection): 1.5 ± 0.4 percentage of radioactivity per gram
Biodistribution, radioactivity in Liver (24 hr post-injection): 7.3 ± 1.5 percentage of radioactivity per gram
Biodistribution, radioactivity in Lung (24 hr post-injection): 22.8 ± 3.3 percentage of radioactivity per gram
Biodistribution, radioactivity in Muscle (24 hr post-injection): 0.2 ± 0.0 percentage of radioactivity per gram
Biodistribution, radioactivity in Small intestine (24 hr post-injection): 19.8 ± 12.0 percentage of radioactivity per gram
Biodistribution, radioactivity in Spleen (24 hr post-injection): 2.0 ± 2.0 percentage of radioactivity per gram
Biodistribution, radioactivity in Stomach (24 hr post-injection): 3.6 ± 1.8 percentage of radioactivity per gram
